Earlier results as cited in US12280067B2 (Phenolics, LLC, priority 2019, dated 2025).

Experiments:
[1] = rats, injected intravenously
[2] = oral, 6-week period, versus creatine monohydrate
Caco-2 monolayers = conditions: Dash et al. 2001

Which results are given for `CN(CC(=O)O)C(=N)NP(=O)(O)O` [phosphocreatine, N-Methyl-N-(phosphono-carbamimidoyl)glycine]?
ATP levels in red blood cells [1]: significant elevation; Bio-transformation and elimination in the body [1]: very rapidly; Effectiveness in achieving lean body mass, desired body weight and improved strength [2]: as effective as creatine monohydrate

Which “Permeability via Caco-2 monolayers” value (Caco-2 monolayers) does the source give for `CN(CC(=O)O)C(=N)N` [creatine] here?
The value was “quite low”.
